What all share (format): cell-based
One assay deals with T1, human TLR7 (Homo sapiens, UniProt Q9NYK1).
T1 construct: host or cells: HEK-Blue cells
T1 sequence (Q9NYK1 27-1049): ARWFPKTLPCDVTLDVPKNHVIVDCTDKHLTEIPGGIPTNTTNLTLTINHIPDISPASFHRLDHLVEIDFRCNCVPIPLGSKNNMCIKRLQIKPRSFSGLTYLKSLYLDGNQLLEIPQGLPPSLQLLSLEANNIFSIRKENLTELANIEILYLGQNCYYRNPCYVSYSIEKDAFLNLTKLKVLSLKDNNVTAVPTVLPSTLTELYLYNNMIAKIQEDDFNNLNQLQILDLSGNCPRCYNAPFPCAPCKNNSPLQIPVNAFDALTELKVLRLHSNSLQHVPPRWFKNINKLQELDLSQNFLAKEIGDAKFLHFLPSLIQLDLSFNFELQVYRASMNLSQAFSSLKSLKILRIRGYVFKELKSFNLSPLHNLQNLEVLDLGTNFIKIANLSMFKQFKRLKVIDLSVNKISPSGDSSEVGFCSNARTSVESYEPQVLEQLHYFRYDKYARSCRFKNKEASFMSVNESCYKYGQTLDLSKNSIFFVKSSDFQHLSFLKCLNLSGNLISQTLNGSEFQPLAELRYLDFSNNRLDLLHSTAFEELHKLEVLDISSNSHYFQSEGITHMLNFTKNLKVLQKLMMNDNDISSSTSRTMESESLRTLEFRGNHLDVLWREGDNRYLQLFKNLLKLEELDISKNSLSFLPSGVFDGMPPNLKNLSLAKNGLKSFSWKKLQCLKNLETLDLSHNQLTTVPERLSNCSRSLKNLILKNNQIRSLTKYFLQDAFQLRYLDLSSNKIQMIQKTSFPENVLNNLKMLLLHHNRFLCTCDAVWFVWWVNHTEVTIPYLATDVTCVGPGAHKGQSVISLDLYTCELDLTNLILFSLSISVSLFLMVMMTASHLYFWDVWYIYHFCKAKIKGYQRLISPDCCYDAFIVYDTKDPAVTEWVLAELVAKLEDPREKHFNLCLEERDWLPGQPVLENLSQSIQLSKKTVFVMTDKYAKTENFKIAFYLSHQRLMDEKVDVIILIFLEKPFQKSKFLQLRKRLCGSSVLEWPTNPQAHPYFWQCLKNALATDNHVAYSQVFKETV
Description: TLR7 inhibition reporter assay (HEK-Blue cells, SEAP reporter, gardiquimod stimulation). The note with it: HEK-Blue cells overexpressing human TLR7, SEAP reporter, gardiquimod 7.5 μM. The essentials:
(§1)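 30 min RT cpd pre-incubation (0.05 nM–50 μM final dose response) → agonist: gardiquimod 7.5 μM / R848 15.9 μM / ODN2006 5 nM for TLR7/8/9 resp. → 22 h, 37° C → SEAP via detection medium. % inhibition vs agonist+DMSO and reference inhibitor controls.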
On the technique in general: In a reporter assay the amount or activity of a reporter protein is the signal.

Another assay addresses T2, human TLR8 (Homo sapiens, UniProt Q9NR97).
T2 construct: host or cells: HEK-Blue cells
T2 sequence (Q9NR97 27-1041): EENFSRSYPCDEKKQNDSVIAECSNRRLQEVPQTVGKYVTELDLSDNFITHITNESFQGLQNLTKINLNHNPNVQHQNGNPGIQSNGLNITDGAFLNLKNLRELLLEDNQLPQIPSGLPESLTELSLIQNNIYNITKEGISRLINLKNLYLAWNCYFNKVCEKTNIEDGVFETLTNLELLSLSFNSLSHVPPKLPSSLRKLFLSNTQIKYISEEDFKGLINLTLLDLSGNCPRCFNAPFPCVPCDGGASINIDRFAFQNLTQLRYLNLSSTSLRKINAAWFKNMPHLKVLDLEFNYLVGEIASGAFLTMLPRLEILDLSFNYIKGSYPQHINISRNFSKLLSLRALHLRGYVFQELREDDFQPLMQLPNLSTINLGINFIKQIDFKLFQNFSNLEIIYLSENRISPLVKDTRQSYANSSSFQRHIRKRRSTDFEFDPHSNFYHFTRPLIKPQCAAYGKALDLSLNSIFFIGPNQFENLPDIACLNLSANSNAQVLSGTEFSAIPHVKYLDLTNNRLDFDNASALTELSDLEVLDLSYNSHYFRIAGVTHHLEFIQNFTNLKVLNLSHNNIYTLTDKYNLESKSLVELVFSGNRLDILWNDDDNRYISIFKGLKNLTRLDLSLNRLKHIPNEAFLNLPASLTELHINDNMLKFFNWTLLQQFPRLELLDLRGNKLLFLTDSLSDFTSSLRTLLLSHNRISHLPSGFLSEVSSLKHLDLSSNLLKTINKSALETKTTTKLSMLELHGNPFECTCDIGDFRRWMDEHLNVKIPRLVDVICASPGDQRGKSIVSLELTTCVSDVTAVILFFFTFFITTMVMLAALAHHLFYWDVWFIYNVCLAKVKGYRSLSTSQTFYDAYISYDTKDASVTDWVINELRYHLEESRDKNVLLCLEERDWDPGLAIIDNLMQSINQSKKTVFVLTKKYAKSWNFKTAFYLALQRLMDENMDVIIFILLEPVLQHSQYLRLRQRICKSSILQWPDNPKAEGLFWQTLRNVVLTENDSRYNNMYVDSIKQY
Description: TLR8 inhibition reporter assay (HEK-Blue cells, SEAP reporter, R848 stimulation). The following applies: HEK-Blue cells overexpressing human TLR8, SEAP reporter, R848 15.9 μM. In a few lines:
as §1

A further assay has as its target T3, human TLR9 (Homo sapiens, UniProt Q9NR96).
T3 construct: host or cells: HEK-Blue cells
T3 sequence (Q9NR96 26-1032): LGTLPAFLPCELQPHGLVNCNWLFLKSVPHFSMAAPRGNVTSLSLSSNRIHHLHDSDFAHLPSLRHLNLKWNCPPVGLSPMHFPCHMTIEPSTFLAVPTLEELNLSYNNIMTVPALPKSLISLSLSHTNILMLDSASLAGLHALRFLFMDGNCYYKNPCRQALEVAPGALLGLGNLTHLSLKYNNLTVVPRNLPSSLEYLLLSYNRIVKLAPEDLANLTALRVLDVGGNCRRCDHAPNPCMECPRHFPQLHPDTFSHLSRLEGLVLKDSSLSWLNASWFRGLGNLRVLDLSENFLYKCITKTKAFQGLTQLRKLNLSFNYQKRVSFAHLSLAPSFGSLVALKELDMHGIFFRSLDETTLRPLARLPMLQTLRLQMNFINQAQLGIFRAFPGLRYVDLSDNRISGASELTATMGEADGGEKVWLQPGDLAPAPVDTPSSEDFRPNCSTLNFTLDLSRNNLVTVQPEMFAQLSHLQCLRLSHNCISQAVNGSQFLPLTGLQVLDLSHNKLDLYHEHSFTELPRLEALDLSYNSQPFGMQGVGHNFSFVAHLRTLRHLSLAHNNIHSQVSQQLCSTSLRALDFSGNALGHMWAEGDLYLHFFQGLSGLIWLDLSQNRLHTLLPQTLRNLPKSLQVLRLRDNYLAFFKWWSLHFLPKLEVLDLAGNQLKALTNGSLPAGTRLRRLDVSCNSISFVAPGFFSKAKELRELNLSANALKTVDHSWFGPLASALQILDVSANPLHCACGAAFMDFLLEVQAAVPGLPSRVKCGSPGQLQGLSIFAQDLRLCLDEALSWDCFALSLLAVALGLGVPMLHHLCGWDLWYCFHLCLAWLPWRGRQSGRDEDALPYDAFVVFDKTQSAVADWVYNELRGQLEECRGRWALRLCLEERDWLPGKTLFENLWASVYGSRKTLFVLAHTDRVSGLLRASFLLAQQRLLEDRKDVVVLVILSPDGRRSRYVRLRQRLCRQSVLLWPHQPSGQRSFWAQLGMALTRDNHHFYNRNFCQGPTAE
Description: TLR9 inhibition reporter assay (HEK-Blue cells, SEAP reporter, ODN2006 stimulation). The note with it: HEK-Blue cells overexpressing human TLR9, SEAP reporter, ODN2006 5 nM. The essentials:
as §1

Structures are written as SMILES. Where only a bound is given, the exact number is not on record here.

Consider nine compounds from patent US20230117470A1, “SUBSTITUTED PYRAZOLE COMPOUNDS AS TOLL RECEPTOR INHIBITORS” (BRISTOL-MYERS SQUIBB COMPANY, priority 2019, published 2023).

As usually defined, the IC50 is the concentration at which inhibition is half-maximal. Lower therefore signals greater potency. For `COc1cc(-c2[nH]nc(-c3ccc(C4CCN(CC(N)=O)CC4)cc3)c2C(C)C)cn2ncnc12` [compound 322], the IC50 against human TLR7 was 15.7 nM; against human TLR8, 4.67 nM; at human TLR9, 35800 nM.

On to `Cc1cc(-c2[nH]nc(C(=O)NC3CCN(CCN(C)C)CC3)c2C(C)C)cn2ncnc12` [Example 83], for which the IC50 on human TLR7 is 6.33 nM; on human TLR8 it was 238 nM; at human TLR9, over 50000 nM.

In the case of `Cc1cc(-c2[nH]nc(-c3cccc(NC(C)C)c3)c2C(C)C)cn2ncnc12` [Example 242], the IC50 is 47.1 nM against human TLR7, 16.1 nM on human TLR8 and over 50000 nM on human TLR9.

For the compound `COc1cc(-c2[nH]nc(-c3nc4c(s3)CN(C)CC4)c2C(C)C)cn2ncnc12` [Example 262], the IC50 is 23.8 nM at human TLR7, 17.5 nM on human TLR8 and 18300 nM on human TLR9.

For the compound `COc1cc(-c2[nH]nc(-c3cnc(C4CCN(CC5CCC5)CC4)cn3)c2C(C)C)cn2ncnc12` [Example 377], the IC50 is 56.9 nM on human TLR7, 18.2 nM against human TLR8 and over 50000 nM against human TLR9.

`COc1cc(-c2[nH]nc(-c3ccc(C4CCN(CCS(C)(=O)=O)CC4)cn3)c2C(C)C)cn2ncnc12` [Example 392]: the IC50 is 241 nM at human TLR7, 404 nM on human TLR8 and over 50000 nM on human TLR9.

On to `Cc1cc(-c2[nH]nc(-c3cncc(N)c3)c2C(C)C)cn2ncnc12` [Example 225], for which the IC50 at human TLR7 is 2.56 nM; at human TLR8 it was 3.94 nM; on human TLR9, 5490 nM.

With `Cc1cc(-c2[nH]nc(C(=O)NC3CCN(C)CC3)c2C(C)C)cn2ncnc12` [Example 8], the IC50 at human TLR7 amounted to 2.47 nM; against human TLR8, 5.42 nM; on human TLR9 it was 30900 nM.

For the compound `CCCN1CCC(NC(=O)c2n[nH]c(-c3cc(OC)c4ncnn4c3)c2CC(F)(F)F)CC1` [Example 195, 5-(8-methoxy-[1,2,4]triazolo[1,5-a]pyridin-6-yl)-N-(1-propylpiperidin-4-yl)-4-(2,2,2-trifluoroethyl)-1H-pyrazole-3-carboxamide], the IC50 came to 2.24 nM on human TLR7, 1.66 nM on human TLR8 and 5500 nM against human TLR9.
